Test results from patent US20220095617A1, “PLANT GROWTH REGULATING AGENT” (IDEMITSU KOSAN CO.,LTD., priority 2019, published 2022).

How the values were obtained:
lettuce (Green Wave) [1] = assay: Example 1: High-temperature stress Petri dish test (lettuce), comparison with other natural products; format: in vivo; settings: 0.1 ppm in agar medium
lettuce (Green Wave) [2] = assay: Example 3: High-temperature stress Petri dish test (lettuce), blending with β-carotene; format: in vivo; settings: 0.1 ppm
Rice (Koshihikari) seeds = assay: Example 5: High-temperature stress Petri dish test (rice seeds); format: in vivo; settings: for Germination rate, Increase rate: non-addition group = 100.0; for Germination rate, Average: seeds 65° C. hot water 10 minutes, 28° C. 5 days
Method: Rice (Koshihikari) seeds were soaked in hot water at 65° C. for 10 minutes to perform high-temperature treatment. […] A group similarly soaked in distilled water was provided as a non-addition group. After the soaking treatment, the seeds were dried in air, and then 20 seeds were sown on each of shallow Petri dishes in which qualitative filter paper was placed. To the filter paper in each Petri dish, 5 mL of distilled water was uniformly added dropwise. […] For each group, three measurement results were obtained (N=3).

lettuce (Green Wave) [3] = assay: Example 2: High-temperature stress Petri dish test (lettuce), blending with neohesperidin
Method: For seeds, 2% water agar medium (using water as the solvent), which was prepared such that hesperidin (Fujifilm Wako Pure Chemical Corporation; special-grade reagent) and neohesperidin (Fujifilm Wako Pure Chemical Corporation; special-grade reagent) were contained at the predetermined final concentrations shown in Table 2, was filled into square Petri dishes (“model number: D-210-16”, manufactured by As One Corporation). Before high-temperature treatment, lettuce (Green Wave, Takii & Co., Ltd.) was sown on 2% water agar medium, and lettuce seedlings on day 2 after the sowing were transplanted to the above-described agar medium to which the hesperidin and/or the like was/were added. At the time of the transplantation, the tip of the root was marked. Each Petri dish after the transplantation was placed in an incubator (“model number: FLI-2010A”, manufactured by EYELA) at an angle of 45° with respect to the bottom surface, and high-temperature treatment was carried out at 42° C. for 1.5 hours. Thereafter, culture was similarly performed at 23° C. for 2 days, and then the increase in the root length was evaluated in terms of elongation from the tip of the root of each seedling at the time of the transplantation. In addition, for evaluation of the effect of the mixture of hesperidin and neohesperidin in normal cultivation, culture was similarly performed at 23° C. without performing the high-temperature treatment, followed by evaluation of the increase in the root length. […] The Colby's equation is as follows.
E=(x+y)−(x·y)/100 Colby's equation:
E: Expected root length x: Root length in the case of application of hesperidin alone y: Root length in the case of application of neohesperidin alone For each group, 15 measurement results were obtained (N=15).

lettuce (Green Wave) [4] = assay: Example 4: High-temperature stress Petri dish test (lettuce), comparison with flavonoids; format: in vivo; settings: 0.1 ppm
[5] = High-temperature treatment (42° C., 1.5 hours), then 23° C. 2 days
[6] = High-temperature treatment (42° C., 1.5 hours)

COc1ccc(CCC(=O)c2c(O)cc(O[C@@H]3O[C@H](CO)[C@@H](O)[C@H](O)[C@H]3O[C@@H]3O[C@@H](C)[C@H](O)[C@@H](O)[C@H]3O)cc2O)cc1O [Neohesperidin dihydrochalcone, neohesperidin dihydrochalcone]
Root length (lettuce (Green Wave) [1]; [5]): 15.3 mm | Root length (lettuce (Green Wave) [1]; Normal cultivation): 23.4 mm

CC1=C(/C=C/C(C)=C/C=C/C(C)=C/C=C/C=C(C)/C=C/C=C(C)/C=C/C2=C(C)CCCC2(C)C)C(C)(C)CCC1 [β-Carotene, reference compound]
Root length (lettuce (Green Wave) [2]; [6]): 7.5 mm | Root length (lettuce (Green Wave) [2]; Normal cultivation): 23.8 mm | Germination rate, Increase rate (Rice (Koshihikari) seeds; 1 ppm): 118.9% | Germination rate, Increase rate (Rice (Koshihikari) seeds; 10 ppm): 134.0% | Germination rate, Increase rate (Rice (Koshihikari) seeds; 100 ppm): 103.7% | Germination rate, Average (Rice (Koshihikari) seeds; then soaked 1 hour at 1 ppm): 69.9% | Germination rate, Average (Rice (Koshihikari) seeds; then soaked 1 hour at 10 ppm): 78.8% | Germination rate, Average (Rice (Koshihikari) seeds; then soaked 1 hour at 100 ppm): 61.0% | Root length (lettuce (Green Wave) [1]; [5]): 11.2 mm | Root length (lettuce (Green Wave) [1]; Normal cultivation): 22.3 mm

CC1=C(/C=C/C(C)=C/C=C/C(C)=C/C=C/C=C(C)/C=C/C=C(C)/C=C/C2=C(C)C(=O)[C@@H](O)CC2(C)C)C(C)(C)C[C@H](O)C1=O [Astaxanthin, reference compound]
Root length (lettuce (Green Wave) [1]; [5]): 11.1 mm | Root length (lettuce (Green Wave) [1]; Normal cultivation): 20.0 mm

CC1=C(/C=C/C(C)=C/C=C/C(C)=C/C=C/C=C(C)/C=C/C=C(C)/C=C/C(=O)[C@]2(C)C[C@@H](O)CC2(C)C)C(C)(C)C[C@H](O)C1 [Capsanthin, reference compound]
Root length (lettuce (Green Wave) [1]; [5]): 10.7 mm | Root length (lettuce (Green Wave) [1]; Normal cultivation): 20.4 mm

COc1ccc([C@@H]2CC(=O)c3c(O)cc(O)cc3O2)cc1O [Hesperetin, hesperetin]
Root length (lettuce (Green Wave) [1]; [5]): 18.0 mm | Root length (lettuce (Green Wave) [1]; Normal cultivation): 23.5 mm

COc1ccc(-c2cc(=O)c3c(OC)c(OC)c(OC)c(OC)c3o2)cc1OC [Nobiletin, nobiletin]
Root length (lettuce (Green Wave) [1]; [5]): 14.1 mm | Root length (lettuce (Green Wave) [1]; Normal cultivation): 23.1 mm

COc1ccc([C@@H]2CC(=O)c3c(O)cc(O[C@@H]4O[C@H](CO[C@@H]5O[C@@H](C)[C@H](O)[C@@H](O)[C@H]5O)[C@@H](O[C@H]5O[C@H](CO)[C@@H](O)[C@H](O)[C@H]5O)[C@H](O)[C@H]4O)cc3O2)cc1O [α-Monoglucosyl hesperidin, α-monoglucosyl hesperidin]
Root length (lettuce (Green Wave) [1]; [5]): 18.7 mm | Root length (lettuce (Green Wave) [1]; Normal cultivation): 23.7 mm

O=C(CCc1ccc(O)cc1)c1c(O)cc(O)cc1O [Phloretin, phloretin]
Root length (lettuce (Green Wave) [1]; [5]): 14.8 mm | Root length (lettuce (Green Wave) [1]; Normal cultivation): 21.9 mm

hesperidin methylchalcone
Root length (lettuce (Green Wave) [1]; [5]): 16.7 mm | Root length (lettuce (Green Wave) [1]; Normal cultivation): 22.8 mm

COc1ccc([C@@H]2CC(=O)c3c(O)cc(O[C@@H]4O[C@H](CO)[C@@H](O)[C@H](O)[C@H]4O[C@@H]4O[C@@H](C)[C@H](O)[C@@H](O)[C@H]4O)cc3O2)cc1O [Neohesperidin]
Root length (lettuce (Green Wave) [3]; High-temperature treatment (42° C., 1.5 hours), 0.03 ppm): 4.9 mm | Root length (lettuce (Green Wave) [3]; High-temperature treatment (42° C., 1.5 hours), 0.1 ppm): 6.4 mm | Root length (lettuce (Green Wave) [3]; Normal cultivation, 0.03 ppm): 17.6 mm | Root length (lettuce (Green Wave) [3]; Normal cultivation, 0.1 ppm): 18.1 mm | Root length (lettuce (Green Wave) [1]; [5]): 21.5 mm | Root length (lettuce (Green Wave) [1]; Normal cultivation): 26.5 mm

O=c1c(-c2ccc(O)cc2)coc2cc(O)ccc12 [Daidzein]
Root length (lettuce (Green Wave) [4]; [6]): 7.5 mm | Root length (lettuce (Green Wave) [4]; Normal cultivation): 26.6 mm

O=c1c(-c2ccc(O)cc2)coc2cc(O)cc(O)c12 [Genistein]
Root length (lettuce (Green Wave) [4]; [6]): 7.4 mm | Root length (lettuce (Green Wave) [4]; Normal cultivation): 25.8 mm

O=C1C[C@@H](c2ccc(O)cc2)Oc2cc(O)cc(O)c21 [Naringenin]
Root length (lettuce (Green Wave) [4]; [6]): 8.4 mm | Root length (lettuce (Green Wave) [4]; Normal cultivation): 22.1 mm

COc1ccc(-c2cc(=O)c3c(OC)c(OC)c(OC)c(OC)c3o2)cc1 [Tangeretin, tangeretin]
Root length (lettuce (Green Wave) [1]; [5]): 18.1 mm | Root length (lettuce (Green Wave) [1]; Normal cultivation): 23.5 mm
